Experimental data: the supplement of paper PMC10307832

Tests used:
Assay in all cases: relative viability (nuclei count vs DMSO), 5 days (fraction); higher = more cells survive
Vemurafenib + Alpelisib = compound: CCCS(=O)(=O)Nc1ccc(F)c(C(=O)c2c[nH]c3ncc(-c4ccc(Cl)cc4)cc23)c1F [Vemurafenib] + Cc1nc(NC(=O)N2CCC[C@H]2C(N)=O)sc1-c1ccnc(C(C)(C)C(F)(F)F)c1 [Alpelisib] (partner 2 µM)
Procedure, shortened: (§1)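 Lung cancer cell lines in 1536-well plates got either a single drug or a fixed anchor-drug dose together with five library-drug doses (not always all listed) in √10 steps, by pin tool, on the day after seeding. Nuclei were counted after 5 days, and relative viability is the treated-to-vehicle ratio of nuclei counts. Values are medians of duplicate plates.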

OSI-027 + Pictilisib = compound: COc1cccc2cc(-c3nc([C@H]4CC[C@H](C(=O)O)CC4)n4ncnc(N)c34)[nH]c12 [OSI-027] + CS(=O)(=O)N1CCN(Cc2cc3nc(-c4cccc5[nH]ncc45)nc(N4CCOCC4)c3s2)CC1 [Pictilisib] (partner 1 µM)
Procedure, shortened: as §1

Alpelisib + Trametinib = compound: Cc1nc(NC(=O)N2CCC[C@H]2C(N)=O)sc1-c1ccnc(C(C)(C)C(F)(F)F)c1 [Alpelisib] + CC(=O)Nc1cccc(-n2c(=O)n(C3CC3)c(=O)c3c(Nc4ccc(I)cc4F)n(C)c(=O)c(C)c32)c1 [Trametinib] (partner 0.02 µM)
Procedure, shortened: as §1

Alpelisib + Pemetrexed = compound: Cc1nc(NC(=O)N2CCC[C@H]2C(N)=O)sc1-c1ccnc(C(C)(C)C(F)(F)F)c1 [Alpelisib] + Nc1nc2[nH]cc(CCc3ccc(C(=O)N[C@@H](CCC(=O)O)C(=O)O)cc3)c2c(=O)[nH]1 [Pemetrexed] (partner 0.2 µM)
Procedure, shortened: as §1

Cell Line	relative viability (Vemurafenib + Alpelisib; first compound 0.03162 µM)	relative viability (Vemurafenib + Alpelisib; first compound 0.1 µM)	relative viability (Vemurafenib + Alpelisib; first compound 0.3162 µM)	relative viability (Vemurafenib + Alpelisib; first compound 1 µM)	relative viability (OSI-027 + Pictilisib; first compound 0.01 µM)	relative viability (OSI-027 + Pictilisib; first compound 0.03162 µM)	relative viability (OSI-027 + Pictilisib; first compound 0.1 µM)	relative viability (OSI-027 + Pictilisib; first compound 0.3162 µM)	relative viability (OSI-027 + Pictilisib; first compound 1 µM)	relative viability (Alpelisib + Trametinib; first compound 0.04 µM)	relative viability (Alpelisib + Trametinib; first compound 0.1265 µM)	relative viability (Alpelisib + Trametinib; first compound 0.4 µM)	relative viability (Alpelisib + Trametinib; first compound 1.265 µM)	relative viability (Alpelisib + Trametinib; first compound 4 µM)	relative viability (Alpelisib + Pemetrexed; first compound 0.04 µM)	relative viability (Alpelisib + Pemetrexed; first compound 0.1265 µM)	relative viability (Alpelisib + Pemetrexed; first compound 0.4 µM)	relative viability (Alpelisib + Pemetrexed; first compound 1.265 µM)	relative viability (Alpelisib + Pemetrexed; first compound 4 µM)
NCI-H661	0.43	0.478	0.409	0.58	0.42	0.392	0.344	0.254	0.268	0.618	0.593	0.645	0.52	0.462	0.941	1.01	0.961	0.915	0.796
NCI-H838	0.879	0.957	–	1.04	0.409	0.434	0.294	0.241	0.297	0.419	0.483	0.515	0.405	0.421	0.257	0.238	0.244	0.229	0.199
NCI-H1355	0.823	0.689	0.797	0.88	0.436	0.399	0.326	0.271	0.208	0.397	0.421	0.386	0.356	0.292	1.03	1.03	1.01	0.934	0.926
NCI-H1395	1.01	1.01	–	1.09	0.559	0.705	0.514	0.458	0.554	1.07	1	1.13	0.817	0.878	0.96	0.747	0.92	0.718	0.714
